Laboratory results as given in patent publication US20240374573A1, “IMIDAZOLE CONTAINING COMPOUNDS, DERIVATIVES THEREFORE, AND USES THEREOF” (AglaeaPharma Inc., priority 2023, published 2024).

biological target: T1, α2AAR (α2A-adrenergic receptor) (Homo sapiens, UniProt P08913); assay: α2AAR FLIPR assay (agonist activity); assay type: cell-based; details: FLIPR, α2AAR cell line hosted in HEK293 cells; read-out: α2A agonist activity (EC50)
T1 construct: expressed in transfected cells; host or cells: HEK293
T1 sequence (P08913 1-465): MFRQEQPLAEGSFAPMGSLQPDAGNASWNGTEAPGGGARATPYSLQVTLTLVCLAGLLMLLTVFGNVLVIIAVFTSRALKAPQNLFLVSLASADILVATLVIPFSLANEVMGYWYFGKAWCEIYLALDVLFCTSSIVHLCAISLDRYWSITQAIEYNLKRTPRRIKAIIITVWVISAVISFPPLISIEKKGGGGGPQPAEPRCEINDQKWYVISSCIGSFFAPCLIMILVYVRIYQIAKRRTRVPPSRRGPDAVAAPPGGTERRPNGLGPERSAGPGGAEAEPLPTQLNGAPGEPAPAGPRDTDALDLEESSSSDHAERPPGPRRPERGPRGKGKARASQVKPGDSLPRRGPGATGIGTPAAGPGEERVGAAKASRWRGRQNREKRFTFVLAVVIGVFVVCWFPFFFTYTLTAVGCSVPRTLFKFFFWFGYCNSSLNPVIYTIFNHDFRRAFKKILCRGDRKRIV
Protocol: This experimental protocol involved cell seeding and a FLIPR assay using the α2AAR (α2A-adrenergic receptor) cell line hosted in HEK293 cells. […] On Day 1, the cell seeding process started with the removal of the culture medium, followed by rinsing the cells with DPBS (21-031-CVC, Corning). […] The cells were detached, resuspended in growth media, and centrifuged at room temperature at 1000 rpm for 5 minutes. After discarding the supernatant, the cell pellet was resuspended in growth media to a concentration of 10× 10^5 cells per mL. This suspension was added to 384-well plates (19-Jul-38, Greiner) at 20 μL per well and incubated overnight at 37° C. in 5% CO2.
A 250 mM Probenecid solution was prepared in this buffer. The Fluo-4 Direct™ Loading Buffer was made by dissolving Fluo-4 Direct™ crystals (F10471, Invitrogen) in the FLIPR Assay Buffer and adding Probenecid. The buffer was then vortexed and allowed to stand for over 5 minutes, shielded from light. For the FLIPR procedure, testing compounds for agonist activite were serially diluted and transferred to a 384-well compound plate (25-Jan-39, Greiner). The cell plate was then treated with 2× Fluo-4 Direct™ loading buffer and incubated for 50 minutes at 37° C. in a 5% CO2 atmosphere, followed by 10 minutes at room temperature. Subsequently, the FLIPR assay buffer was added to the compound plate, which is then centrifuged.
The cell plate was analyzed in the FLIPR Tetra+ System for fluorescence signals. For the agonist test, reference compounds were added to the cell plates, and fluorescence was measured. The “Max-Min” calculation began from Read 1 to the maximum allowed. The data were analyzed using Prism software to calculate activation percentage for agonists and inhibition percentage for antagonists. The results were then fitted using specific models to determine EC50 for agonists.
The experimental protocol utilized various reagents and apparatus, including Penicillin/Streptomycin (100×) (SV30010, Hyclone), Poly-L-lysine hydrobromide (P1399, Sigma), and different types of 384-well plates such as the 384-Well PP 2.0 Microplate (PP-0200, LABCYTE) and 384 well Low Dead Volume Microplate (LP-0200, LABCYTE). The use of specific reference compounds like UK14304 was also integral to the assay.

EC50 | Compound
> 1000 nM | CONC(=O)c1cccc(C(c2c[nH]cn2)c2cccc(C)c2C)c1 (single isomer, unassigned) [1-A]
> 1000 nM | Cc1cccc(C(c2cccc(C(N)=O)c2)c2c[nH]cn2)c1C (single isomer, unassigned) [5-A]
> 1000 nM | Cc1cccc(C(c2cccc(NC(=O)CC#N)c2)c2c[nH]cn2)c1C (single isomer, unassigned) [10-A]
> 1000 nM | CNC(=O)NCCOCCOCC(c1c[nH]cn1)c1cccc(C)c1C (single isomer, unassigned) [17-A]
> 1000 nM | Cc1cccc(C(c2cccc(C(=O)NC3CCOCC3)c2)c2c[nH]cn2)c1C (single isomer, unassigned) [121-A]
> 1000 nM | Cc1cccc(C(Cc2ccc(C(C)C(=O)O)cc2)c2c[nH]cn2)c1C (single isomer, unassigned) [174-A]
250 to 1000 nM | Cc1cccc(C(Cc2ccc(C(C)C(=O)O)cc2)c2c[nH]cn2)c1C (single isomer, unassigned) [174-C]
10 to 50 nM | Cc1cccc(C(c2cccc(C(=O)NCCO)c2)c2c[nH]cn2)c1C (centres unmarked) [compound 2]
10 to 50 nM | COCCOCCNC(=O)c1cccc(C(c2c[nH]cn2)c2cccc(C)c2C)c1 (centres unmarked) [compound 3]
50 to 250 nM | Cc1cccc(C(c2cccc(OCCNC(=O)Nc3ccncn3)c2)c2c[nH]cn2)c1C (centres unmarked) [compound 4]
10 to 50 nM | Cc1cccc(C(c2cccc(C(N)=O)c2)c2c[nH]cn2)c1C (centres unmarked) [compound 5]
250 to 1000 nM | CONC(=O)c1cccc(C(c2c[nH]cn2)c2cccc(O)c2C)c1 (centres unmarked) [compound 7]
10 to 50 nM | CONC(=O)c1cccc(C(c2c[nH]cn2)c2cccc(C)c2C)c1O (centres unmarked) [compound 8]
10 to 50 nM | Cc1cccc(C(c2c[nH]cn2)c2cccc(C(N)=O)c2O)c1C (centres unmarked) [compound 9]
10 to 50 nM | Cc1cccc(C(c2cccc(NC(=O)CC#N)c2)c2c[nH]cn2)c1C (centres unmarked) [compound 10]
250 to 1000 nM | Cc1cccc(C(c2cccc(C(=O)O)c2)c2c[nH]cn2)c1C (centres unmarked) [compound 11]
> 1000 nM | Cc1cccc(C(c2ccc(C(=O)O)cc2)c2c[nH]cn2)c1C (centres unmarked) [compound 12]
> 1000 nM | CNC(=O)Nc1ccc(C(c2c[nH]cn2)c2cccc(C)c2C)cc1 (centres unmarked) [compound 14]
> 1000 nM | COCCOCCOCCOCCOCCOc1ccc(C(c2c[nH]cn2)c2cccc(C)c2C)cc1 (centres unmarked) [compound 15]
10 to 50 nM | COCCOCCOCCOCC(c1c[nH]cn1)c1cccc(C)c1C (centres unmarked) [compound 16]
10 to 50 nM | CNC(=O)NCCOCCOCC(c1c[nH]cn1)c1cccc(C)c1C (centres unmarked) [compound 17]
10 to 50 nM | Cc1cccc(C(COCCOCCNS(C)(=O)=O)c2c[nH]cn2)c1C (centres unmarked) [compound 18]
50 to 250 nM | Cc1cccc(C(COCCOCCN)c2c[nH]cn2)c1C (centres unmarked) [compound 19]
> 1000 nM | COCCOCCOCCOCCOCCOCCCC(c1c[nH]cn1)c1cccc(C)c1C (centres unmarked) [compound 21]
250 to 1000 nM | Cc1cccc(C(c2cccc(C(=O)N3CCOCC3)c2)c2c[nH]cn2)c1C (centres unmarked) [compound 23]
50 to 250 nM | CC(=O)NCCOCCOCC(c1c[nH]cn1)c1cccc(C)c1C (centres unmarked) [compound 25]
50 to 250 nM | Cc1cccc(C(c2cccc(C(=O)N(C)C)c2)c2c[nH]cn2)c1C (centres unmarked) [compound 33]
> 1000 nM | Cc1cccc(C(c2c[nH]cn2)c2ccccc2C(N)=O)c1C (centres unmarked) [compound 34]
50 to 250 nM | CONC(=O)c1cccc(C(c2c[nH]cn2)c2cccc(Cl)c2Cl)c1 (centres unmarked) [compound 35]
50 to 250 nM | CONC(=O)c1cccc(C(c2c[nH]cn2)c2cccc(Cl)c2C)c1 (centres unmarked) [compound 36]

Compound | EC50
Cc1cccc(C(c2ccc(O)cc2)c2c[nH]cn2)c1C (centres unmarked) [compound 13] | > 1000 nM

same assay, conditions: α2A agonist activity (EC50, nM)

Compound | EC50
CNC(=O)c1cccc(C(c2c[nH]cn2)c2cccc(C)c2C)c1 (centres unmarked) [compound 6] | 10 to 50 nM
CNCCOCCOCC(c1c[nH]cn1)c1cccc(C)c1C (centres unmarked) [compound 24] | 250 to 1000 nM

biological target: T2, α2AAR (Homo sapiens, UniProt P08913); assay: α2AAR binding assay ([3H]-RX 821002 radioligand); details: [3H]-RX 821002 0.5 nM, HEK293 membranes; read-out: α2A affinity (Ki)
T2 construct: host or cells: HEK293 (membranes)
T2 sequence (P08913 1-465): T1 sequence (P08913 1-465)
Protocol: The α2AR Binding Assay was conducted using a stable HEK293 cell line, specifically constructed by WuXi AppTec for targeting α2AAR. […] Both the assay and wash buffers consist of 50 mM Tris-HCl at a pH of 7.4 (Tris base, Sigma, T1503-1 KG).
The procedure initiated with the preparation of test compounds and a reference compound, yohimbine (Sigma, Y3125), through an 8-point 4-fold serial dilution, transferring 1 μL of each to the assay plate. […] After scaling, the plates were agitated at room temperature for one hour. Subsequently, the Unifilter-96 GF/C filter plates were pre-soaked with 0.3% PEI (Sigma, P3143) for at least half an hour. The reaction mixtures were then filtered and washed four times with cold wash buffer using a Perkin Elmer Cell harvester. Post-filtration, the plates were dried at 50° C. for one hour. […] The top of the plates was then sealed with TopSeal-A sealing film. The trapped 3H was quantified using a Perkin Elmer MicroBeta2 Reader. […] Finally, the data were analyzed with Prism 5.0 software, employing the “log (inhibitor) vs. response-Variable slope” model for data fitting. This comprehensive process ensured precise assessment of the binding affinity of compounds to the α2AAR.

Ki | Compound
50 to 250 nM | Cc1cccc(C(Cc2ccc(NS(C)(=O)=O)cc2)C2=NCCN2)c1C (centres unmarked) [compound 518]
250 to 1000 nM | COCCOCc1cccc(Cl)c1NC1=NCCN1 [compound 520]
